In paper PMC3850926, “Evaluation of the adverse event profile and pharmacodynamics of toceranib phosphate administered to dogs with solid tumors at doses below the maximum tolerated dose” (BMC Veterinary Research, 2013):
Entries after “also recorded” stand apart in the source; their conditions may differ.

Tests used:
[1] = tested on: target receptor tyrosine kinases; design: method as in PMID 12538485; conditions: established in rodent studies; cited from earlier work
VEGF = test: Plasma VEGF concentrations (Canine VEGF Quantikine ELISA); assay type: in vivo, dog
Protocol: A total of 40 dogs were enrolled in this study, with dogs initially assigned to toceranib at 2.5 mg/kg or 2.75 mg/kg EOD. All dogs were placed on famotidine at 0.5-1 mg/kg once per day at study initiation and owners were instructed to administer the toceranib in the morning with food. Physical examination, routine bloodwork (CBC, biochemistry profile) and blood sampling for assessment of toceranib and VEGF plasma concentrations was performed pretreatment and on days 0, 7, 14 and 30 of treatment. […] Owners of dogs that experienced CR, PR, or SD at study day 30 were offered the option of continuing toceranib administration for an additional 6 months (provided at no cost), although patient data was not officially captured beyond day 30.
Blood was collected into EDTA tubes and centrifuged at 3000 × g for 10 minutes. Plasma was then collected and split evenly into two portions in cryovials, then stored at -80°C until analysis was performed for toceranib and VEGF concentrations.
A solid phase sandwich ELISA was used to measure plasma concentrations of VEGF. […] All standards and samples were performed in duplicate and the absorbance reading at […] was subtracted from the absorbance reading at […].
VEGF concentrations were analyzed in terms of percent change from baseline. […]

dogs with solid tumors = test: Assessment of adverse events (VCOG-CTCAE); assay type: in vivo, dog
Protocol: All dogs were placed on famotidine at 0.5-1 mg/kg once per day at study initiation and owners were instructed to administer the toceranib in the morning with food. […] Dogs were evaluated for AEs on days 0, 7, 14, and 30 of study, as well as at interim time points as needed. AEs were defined and graded according to the published VCOG-CTCAE criteria. Disease progression or signs and symptoms definitely related to disease were not considered AEs.

[2] = tested on: AGASACA, thyroid carcinomas, head and neck carcinomas, nasal tumors; design: method as in PMID 22236194; conditions: median dose 2.8 mg/kg, cited from earlier work
[3] = number of AEs, 40 dogs, 2.4-2.9 mg/kg EOD, 30 days

SMILES: Cc1[nH]c(/C=C2\C(=O)Nc3ccc(F)cc32)c(C)c1C(=O)NCCN1CCCC1 [toceranib, Toceranib phosphate]
- plasma concentration threshold for receptor (target) inhibition in vivo [1]: 40 ng/mL
- change in plasma VEGF concentrations over the 30 day treatment period (VEGF; 8 hours post dosing, days 0, 7, 14, 30, p < 0.001): increase significantly; also recorded: increased over time
- association of change in VEGF with Cmax and Tmax (VEGF; linear mixed models): associated with Cmax (p < 0.001), but not Tmax (p = 0.74)
- grade 3 or 4 GI adverse events (dogs with solid tumors; 2.4-2.9 mg/kg EOD): no grade 3 or 4 GI adverse events
- dogs with increased BUN without concomitant increase in creatinine (dogs with solid tumors; 6 had concurrent gastrointestinal upset): 9 dogs
- dogs with grade 1 anemia (dogs with solid tumors; 6 had mild anemia of chronic disease before treatment): Thirteen
- clinical evidence of hepatotoxicity (dogs with solid tumors; 40 dogs, 30 days): no dogs
- dogs that developed grade 1 anorexia (number) (dogs with solid tumors; 40 dogs, 30 days): Thirteen
- dogs that developed grade 1 anorexia (percent) (dogs with solid tumors; 40 dogs, 30 days): 32.5%
- dogs that developed grade 1 diarrhea (number) (dogs with solid tumors; 40 dogs, 30 days): Fifteen
- dogs that developed grade 1 vomiting (number) (dogs with solid tumors; 40 dogs, 30 days): Eighteen
- dogs that developed grade 2 diarrhea (dogs with solid tumors; 40 dogs, 30 days): Six
- dogs with grade 1 increases in AST (dogs with solid tumors; 40 dogs, 30 days): Five
- dogs with grade 1 thrombocytopenia (dogs with solid tumors; 40 dogs, 30 days): 2 dogs
- dogs with grade 2 anorexia (dogs with solid tumors; 40 dogs, 30 days): 1 dogs
- dogs with grade 2 colitis (dogs with solid tumors; 40 dogs, 30 days): two
- dogs with grade 2 vomiting (dogs with solid tumors; 40 dogs, 30 days): 3 dogs
- dogs with grade 3 hypertension (dogs with solid tumors; 40 dogs, 30 days): 2 dogs
- dogs with grade 3 lameness (dogs with solid tumors; 40 dogs, 30 days): 1 dogs
- dogs with mild-to-moderate lameness (grade 1–2) (dogs with solid tumors; 40 dogs, 30 days): 10 dogs
- dogs with more than one episode of grade 1 diarrhea (dogs with solid tumors; 40 dogs, 30 days): 10 dogs
- dogs with more than one event of grade 1 vomiting (dogs with solid tumors; 40 dogs, 30 days): 5 dogs
- dogs with transient grade 1 elevations in ALT (dogs with solid tumors; 40 dogs, 30 days): 7 dogs
- dogs with grade 1 neutropenia (number) (dogs with solid tumors; after 1–3 weeks of therapy): 20/40
- share of AEs that were grade 1 or grade 2 (dogs with solid tumors; all AEs of the study): 86%
- share of AEs that were grade 2 (dogs with solid tumors; all AEs of the study): 12%
- dogs that developed hypertension (any grade) (dogs with solid tumors; blood pressure measured only in animals with signs): 3 dogs
- adverse event profile compared to the label dose of 3.25 mg/kg EOD (dogs with solid tumors; dog, in vivo): substantially reduced adverse event profile
- dogs with grade 3 AST elevation (dogs with solid tumors; end of study period): 1 dogs
- dogs with weight loss (dogs with solid tumors; grade 1 event): 3 dogs
- dogs with lethargy (number) (dogs with solid tumors; grade 1 or 2, 40 dogs, 30 days): 13 dogs
- dogs with lethargy (percent) (dogs with solid tumors; grade 1 or 2, 40 dogs, 30 days): 32.5%
- dogs requiring a dose modification (dogs with solid tumors; initiated at 2.5 mg/kg): five
- dogs requiring a dose modification (dogs with solid tumors; initiated at 2.75 mg/kg): three
- Alopecia, Grade 1 (dogs with solid tumors; [3]): 1
- Anemia, Grade 1 (dogs with solid tumors; [3]): 13
- Anorexia, Grade 1 (dogs with solid tumors; [3]): 15
- Anorexia, Grade 2 (dogs with solid tumors; [3]): 1
- Colitis, Grade 2 (dogs with solid tumors; [3]): 2
- Constipation, Grade 1 (dogs with solid tumors; [3]): 1
- Cough, Grade 1 (dogs with solid tumors; [3]): 4
- Dermatitis, Grade 1 (dogs with solid tumors; [3]): 1
- Diarrhea, Grade 1 (dogs with solid tumors; [3]): 34
- Diarrhea, Grade 2 (dogs with solid tumors; [3]): 6
- Epistaxis, Grade 1 (dogs with solid tumors; [3]): 3
- Fever, Grade 2 (dogs with solid tumors; [3]): 1
- Hand-foot syndrome, Grade 1 (dogs with solid tumors; [3]): 1
- Hypertension, Grade 1 (dogs with solid tumors; [3]): 1
- Hypertension, Grade 3 (dogs with solid tumors; [3]): 2
- Hypopigmentation, Grade 1 (dogs with solid tumors; [3]): 2
- Ileus, Grade 3 (dogs with solid tumors; [3]): 1
- Increase ALP, Grade 1 (dogs with solid tumors; [3]): 9
- Increase ALP, Grade 2 (dogs with solid tumors; [3]): 2
- Increase ALP, Grade 3 (dogs with solid tumors; [3]): 1
- Increase ALT, Grade 1 (dogs with solid tumors; [3]): 7
- Increase ALT, Grade 3 (dogs with solid tumors; [3]): 1
- Increase ALT, Grade 4 (dogs with solid tumors; [3]): 1
- Increase AST, Grade 1 (dogs with solid tumors; [3]): 5
- Increase AST, Grade 3 (dogs with solid tumors; [3]): 1
- Increase BUN, Grade 1 (dogs with solid tumors; [3]): 9
- Increase BUN, Grade 2 (dogs with solid tumors; [3]): 1
- Increase CK, Grade 1 (dogs with solid tumors; [3]): 2
- Lameness, Grade 1 (dogs with solid tumors; [3]): 6
- Lameness, Grade 2 (dogs with solid tumors; [3]): 8
- Lameness, Grade 3 (dogs with solid tumors; [3]): 1
- Lethargy, Grade 1 (dogs with solid tumors; [3]): 15
- Lethargy, Grade 2 (dogs with solid tumors; [3]): 2
- Neutropenia, Grade 1 (dogs with solid tumors; [3]): 20
- Neutropenia, Grade 2 (dogs with solid tumors; [3]): 1
- Ocular discharge, Grade 1 (dogs with solid tumors; [3]): 3
- Pancreatitis, Grade 3 (dogs with solid tumors; [3]): 1
- Panting, Grade 1 (dogs with solid tumors; [3]): 3
- Protein losing nephropathy, Grade 1 (dogs with solid tumors; [3]): 4
- Pruritus, Grade 1 (dogs with solid tumors; [3]): 1
- Thrombocytopenia, Grade 1 (dogs with solid tumors; [3]): 2
- Vomiting, Grade 1 (dogs with solid tumors; [3]): 23
- Vomiting, Grade 2 (dogs with solid tumors; [3]): 3
- Weight loss, Grade 1 (dogs with solid tumors; [3]): 3
- all adverse events, Grade 1 (total) (dogs with solid tumors; [3]): 188
- all adverse events, Grade 2 (total) (dogs with solid tumors; [3]): 27
- all adverse events, Grade 3 (total) (dogs with solid tumors; [3]): 8
- all adverse events, Grade 4 (total) (dogs with solid tumors; [3]): 1
- lethargy, grade 1 episodes among the affected dogs (dogs with solid tumors; remainder grade 2): 11
- dogs with depigmentation and thinning of the footpads in all 4 limbs (dogs with solid tumors; resolved after 1 week discontinuation): One
- weight loss, percent of initial recorded body weight (dogs with solid tumors; the 3 affected dogs): 5-10%
- dogs with dose changed (drug holiday and/or dose reduction), number (dogs with solid tumors; throughout the study period): 8 dogs
- dogs with dose changed (drug holiday and/or dose reduction), percent (dogs with solid tumors; throughout the study period): 20%
- patients that developed protein losing nephropathy (PLN) (dogs with solid tumors; without an apparent cause): 4 patients
- clinical benefit rate (CR + PR + SD) [2]: exceeding 80%
- objective response rates ([2]; varied by tumor type): 25-75%
